We go through one molecule from US5770382A, “Tricyclic retinoids, methods for their production and use” (Ligand Pharmaceuticals, Inc., priority 1995, dated 1998).

Common to all, as to format: cell-based
For experiment [1], the target named is T1, RARβ (Homo sapiens, UniProt P10826).
T1 construct: expressed in transfected cells; host or cells: CV-1 (African green monkey kidney fibroblasts)
T1 sequence (P10826 1-448 isoform P10826-2): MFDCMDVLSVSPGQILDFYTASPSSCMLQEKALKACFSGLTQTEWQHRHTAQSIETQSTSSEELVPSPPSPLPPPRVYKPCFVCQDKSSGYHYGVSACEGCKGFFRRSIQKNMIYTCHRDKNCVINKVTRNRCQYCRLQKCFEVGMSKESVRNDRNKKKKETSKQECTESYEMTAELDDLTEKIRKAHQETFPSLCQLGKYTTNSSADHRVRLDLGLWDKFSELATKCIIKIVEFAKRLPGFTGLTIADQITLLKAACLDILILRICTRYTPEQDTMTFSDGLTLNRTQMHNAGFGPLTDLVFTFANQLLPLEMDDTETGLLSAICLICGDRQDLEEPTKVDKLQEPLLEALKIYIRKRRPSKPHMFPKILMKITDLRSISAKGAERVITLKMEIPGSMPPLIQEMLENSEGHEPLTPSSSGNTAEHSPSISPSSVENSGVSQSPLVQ
Nature of the experiment: Co-transfection assay, RARβ agonist activity. As to conditions: CV-1 cells, 40 hours; read-out: RARβ Pot (potency, EC50).

Experiment [2] deals with RXRs. As to the kind of experiment: Co-transfection assay, summary for the RXRs. The procedure: Utilizing the "cis-trans" or "co-transfection" assay described by Evans et al., Science, 240:889-95 (May 13, 1988), the disclosure of which is herein incorporated by reference, the retinoid compounds of the present invention were tested and found to have strong, specific activity as either selective RAR agonists, selective RXR agonists, or as pan-agonist activators of both RAR and RXR receptors. This assay is described in further detail in U.S. Pat. Nos. 4,981,784 and 5,071,773, the disclosures of which are incorporated herein by reference.
The co-transfection assay provides a method for identifying functional agonists which mimic, or antagonists which inhibit, the effect of native hormones, and quantifying their activity for responsive IR proteins. In this regard, the co-transfection assay mimics an in vivo system in the laboratory. Importantly, activity in the co-transfection assay correlates very well with known in vivo activity, such that the co-transfection assay functions as a qualitative and quantitative predictor of a tested compounds Ln vivo pharmacology. See, e.g., T. Berger et al. 41 J. Steroid Biochem. Molec. […]
The co-transfection assay can detect small molecule agonists or antagonists of target IRs. […] This activity can be conveniently measured, e.g., by increasing luciferase production, which reflects compound-dependent, IR-mediated increases in reporter transcription. […]

The target of experiment [3] is T2, RXRβ (Mus musculus, UniProt P28704).
T2 construct: expressed in transfected cells; host or cells: CV-1 (African green monkey kidney fibroblasts)
T2 sequence (P28704 1-520): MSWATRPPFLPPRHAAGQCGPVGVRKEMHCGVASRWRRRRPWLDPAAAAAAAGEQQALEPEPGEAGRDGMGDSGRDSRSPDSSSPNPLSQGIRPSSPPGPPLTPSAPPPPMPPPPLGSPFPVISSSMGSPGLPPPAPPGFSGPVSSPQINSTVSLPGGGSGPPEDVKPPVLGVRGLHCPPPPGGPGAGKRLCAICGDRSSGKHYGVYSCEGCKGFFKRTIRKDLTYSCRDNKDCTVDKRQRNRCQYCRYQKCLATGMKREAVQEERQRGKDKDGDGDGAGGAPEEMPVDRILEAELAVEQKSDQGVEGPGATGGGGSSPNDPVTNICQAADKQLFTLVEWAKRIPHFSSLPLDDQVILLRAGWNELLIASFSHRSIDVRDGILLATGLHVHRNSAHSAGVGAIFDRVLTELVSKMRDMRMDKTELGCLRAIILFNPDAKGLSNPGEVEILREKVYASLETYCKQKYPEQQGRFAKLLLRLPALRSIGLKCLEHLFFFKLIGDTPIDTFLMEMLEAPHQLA
Nature of the experiment: Co-transfection assay, RXRβ agonist activity. As to conditions: CV-1 cells, 40 hours; read-out: RXRβ Pot (potency, EC50).

As usually defined, the EC50 is the midpoint of the concentration-response curve.

For `CC(/C=C/C=C1/CC(C)(C)Oc2cc3c(cc21)C(C)(C)CCC3(C)C)=C\C(=O)O` [Compound 104b, (2E,4E)-3-Methyl-6-(2,3,6,7,8,9-hexahydro-2,2,6,6,9,9-hexamethylbenzo[b]-chromen-4-ylidene)-hexa-2,4-dienoic acid], the figures for the EC50 in experiment [1] and in experiment [3] were 61 nM and 20 nM, respectively. Besides, the “RXR activity / selectivity (in words)” value in experiment [2] is “potent and selective RXR compound”.
